Assay: Human HepG2 cell viability assay in 384 well format
Format: toxicity, cell-based
Design: dose 125 nL, time 70.5 hour; concentration not given beside the values
Conditions: HepG2 cells, read-out: Inhibition

Compound | cytotoxicity at 70.5 h [%]
CC(CO)CN(Cc1ccccc1)Cc1cnc2ccccc2n1 (stereo not drawn) | -8.82
COC[C@@]12CCO[C@@H]1CCN(C(=O)C1CCSCC1)C2 | -5.18
Cc1cccc(C(=O)N2CC(Cc3nccc4ccn(C)c34)C2)n1 | 1.37
COCC(C)NC(=O)Nc1cc(-c2ccccc2C)nn1CCO (stereo not drawn) | -4.5
COc1ccc(-c2cc3nc(CCNC(=O)CN(C)C)nn3cn2)cc1 | -1.8
CC(=O)Nc1cccc(C(=O)N2CCc3c(nc(N(C)C)[nH]c3=O)C2)c1 | 16.1
c1cnn(CC2CN(Cc3nc(-c4ccoc4)no3)CCO2)c1 (stereo not drawn) | 24.3
CCOC(=O)N1CC(=O)N(Cc2ccc(OC)cc2)CC(O)C1 (stereo not drawn) | 0.836
CCCOCC(=O)N1CCCN(Cc2csc(CC)n2)CC1 | 6.02
CC(NC(=O)Nc1nccs1)c1cccnc1 (stereo not drawn) | -2.43
COc1ccncc1NCc1ccsc1 | -2.45
COC(=O)C(C)NCc1ccc2[nH]c(C)c(C)c2c1 (stereo not drawn) | -0.287
CC1CCN(C(=O)CN(Cc2ccco2)C2CC2)CC1 | -9.01
COc1cccc(Nc2nc(C3CCCNC3)c3sc(C)c(C)n23)c1 (stereo not drawn) | -12
CCn1ncc(C(=O)NCCc2nc(-c3ccncc3)n[nH]2)c1C | -7.04
Cn1cc(CN2CC[C@@H]3[C@@H](CO[C@H]3CNC(=O)c3ccco3)C2)cn1 | -3.28
Cc1noc(C)c1CN1CCN(C(=O)C(C(C)C)n2cncn2)CC1 (stereo not drawn) | 2.25
COc1c(C)cnc(CN(C)C(=O)Nc2ccc3c(c2)CCO3)c1C | 19
Cc1cc(C(=O)NC2=NCCS2)c(C)n1-c1ccccn1 | -6.96
CC(=O)NCC(=O)N1CCC2(COCc3c(C)nc(N(C)C)nc32)C1 (stereo not drawn) | -6.64
CC(C)Cc1nc(CO)n(-c2ccc3c(c2)OCCO3)n1 | 1.83
COc1ccc(N2CCC(NC(=O)c3sccc3C)CC2)cc1 | 18.3
c1ccc2oc(CN3CCCC3Cn3cncn3)nc2c1 (stereo not drawn) | -6.61

Compound | cytotoxicity at 70.5 h [%]
Cn1nccc1C1CCN(Cc2cnn(-c3ccccc3)n2)CC1 | 20.8
Cn1ccnc1C(O)c1ccccc1N1CCN(Cc2ccsc2)CC1 (stereo not drawn) | -5.94
CC(Cc1cccc(Cl)c1)NC(=O)NCc1ncnn1C (stereo not drawn) | 11.1
CC(=O)N1CCCC(C(=O)N2CCN(Cc3cc(C)on3)CC2)C1 (stereo not drawn) | 2.35
Cc1cccc(S(=O)(=O)N2C[C@H]3C[C@H](C(=O)NCC(C)C)[C@@H](C2)O3)c1 | 25.7
Cc1cccc(-n2cc(CNc3ncnc4c3CCNCC4)cn2)c1 | -10.3
CN(C)C(=O)N1CC2(CCNCC2)c2cc(F)ccc21 | -8.45
O=C(NCCc1ccsc1)Nc1cccnc1N1CCCC1 | 3.02
CC(CNC(=O)c1c[nH]nn1)Oc1ccccc1Br (stereo not drawn) | -10.7
CC(C)c1cc(C(=O)NCC(O)C2CCOCC2)nn1C(C)(C)C (stereo not drawn) | 1.71
OCCN1CCN(Cc2cn(-c3ccccc3)nn2)CC1 | -11.9
O=C1CC(N(C(=O)c2ccc(Oc3ccccc3)cc2)C2CC2)C(=O)N1 (stereo not drawn) | -4.82
Cc1ccc(F)c(C(=O)Nc2cccc(CCN3CCCC3)c2)c1 | -1.18
OC1(CNCCc2csc(-c3ccncc3)n2)CCCNC1 (stereo not drawn) | -5.37
CC(C)n1nc2c(cc1=O)CN(CCCN1CCCC1=O)CC2 | -9.82
CCn1cc(NC(=O)C2CCN(CC(=O)NCC(C)C)CC2)cn1 | -5.15
Cc1ccc(C2CSCCN2C(=O)c2cccs2)o1 (stereo not drawn) | 19.9
CC(C)CCOc1ccc(C(C)NC(=O)Cn2cccnc2=O)cc1 (stereo not drawn) | -5.94
O=C(NC1CC1)C1CCCN(c2cccc(C(F)(F)F)n2)C1 (stereo not drawn) | -5.01
Clc1ccccc1-c1nnc(CNCCn2cccn2)o1 | -8.51
CC(C)c1cc(N2CCN(c3ccc(O)cc3)CC2)n2nccc2n1 | -11.5
COc1ccc(C2CCCCCN2Cc2nnc(C)o2)cc1 (stereo not drawn) | -3.01
O=C(NCc1cnn2ccccc12)NC1CCCC1 | -15.5

Compound | cytotoxicity at 70.5 h [%]
Cn1cc(C2=NOC(C(=O)NC3(c4ccccc4)CCCC3)C2)cn1 (stereo not drawn) | -3.59
Cn1ccc(C(=O)NC2CCC23CCN(C(=O)c2ccccn2)CC3)c1 (stereo not drawn) | -4.01
OC(CN1CCOCC1)c1ccc(Br)cc1 (stereo not drawn) | -4.1
CC(C)Nc1ncccc1C(=O)NC1CC(=O)N(CC(F)(F)F)C1 (stereo not drawn) | -2.71
Cc1ncc(CN2CCN(C(=O)C3CCC3)[C@@H]3CS(=O)(=O)C[C@@H]32)cn1 | -16.2
CCC(C)NC(=O)Cn1ncc2c1c(C)nn2CC (stereo not drawn) | 22.8
CCCc1nc(N2CCC(CCO)CC2)c2cnn(C)c2n1 | -2.39
Cc1ccc(=O)n(CC2(O)CCN(Cc3cnn(C)c3)CC2)n1 | -3.09
CCCN1CCC(N2CCN(c3cc(C)nc(COC)n3)CC2)CC1 | 3.64
O=C(Cc1ccc(Cl)cc1)N[C@@H]1CCC[C@@H](O)[C@@H]1O | -0.327
Cc1cc2[nH]cc(C(=O)N3CCCCC3c3ccc(F)cc3)c(=O)n2n1 (stereo not drawn) | -3.07
CCN(CC(C)C#N)C(=O)CNc1cc(Cl)ccc1C(N)=O (stereo not drawn) | 3.41
CC1CN(CC(=O)NC(=O)NCc2cccs2)CCN1CC(F)(F)F (stereo not drawn) | -11
Fc1ccc(CN2CCC3(CCCN(c4nncs4)C3)C2)cc1 (stereo not drawn) | -2.74
CCOc1ccc(-c2ccnc(C3CC3)n2)cc1C(=O)O | -3.39
COc1ccccc1C1CC(=O)Nc2nc(N3CCCCC3)sc21 (stereo not drawn) | -18.8
CC(=O)NCC1CCN(C(=O)NCCc2ccc(Cl)s2)CC1 | -6.89
COc1ccnc(N2CCCN(C(=O)CCc3cnn(C)c3)CC2)n1 | -10.3
CNS(=O)(=O)c1cccc(C(C)NCc2ccc(C)o2)c1 (stereo not drawn) | -2.97
N#Cc1ccc(S(=O)(=O)NC(=O)C2CC(c3ccccc3)=NO2)cc1 (stereo not drawn) | -12.1
Cc1cc(CN(C)C(=O)NCc2ccco2)no1 | -2.34
Cc1cc(N2CCCC(c3n[nH]c4ncccc34)C2)ncn1 (stereo not drawn) | -4.69
Cc1noc(C2CCC3(CCN(C(=O)c4ccncn4)CC3)O2)n1 (stereo not drawn) | 3.42

Compound | cytotoxicity at 70.5 h [%]
N[C@@H]1c2ccccc2C2(CCN(C(=O)c3cncc(Cl)c3)CC2)[C@H]1O | 19
CCn1c(CN(C)C)nnc1C1CCN(Cc2ccncc2)CC1 | -6.3
CCN(Cc1ccncc1)c1cc(C2CCN2C(C)=O)nc(C)n1 (stereo not drawn) | -1.55
Cc1cc(C(=O)N2C[C@@H]3[C@@H](CN(C)CCCn4cccn4)[C@@H]3C2)c(C)o1 | -0.851
OC(COCc1ccccc1)CSc1nnc(C2CC2)n1C1CC1 (stereo not drawn) | 0.33
CC(N(C)Cc1nc2c(cnn2C)c(=O)[nH]1)C(C)(C)C (stereo not drawn) | 21
O=C(C1CN(CC2CCOCC2)CC12CCOCC2)N1CCCC1 (stereo not drawn) | -2.27
CCCN1C[C@H](NC(=O)c2cccs2)[C@@H](c2ccc(OC)cc2)C1 | 0.254
Cc1nc(CNC(=O)NCC(O)c2ccc(F)cc2F)cs1 (stereo not drawn) | -12
Cc1ccc(C)c(S(=O)(=O)NC(=O)COc2cccc(C#N)c2)c1 | -2.88
CN(C)C(=O)C1CCC2(CCN(Cc3cnn(C)c3)CC2)C1 (stereo not drawn) | -7.73
O=C(CN1C(=O)CCNC1=O)N1CCC(c2ccc(F)cc2)C1 (stereo not drawn) | -5.75
Cc1ccsc1C(=O)N1CCc2ncc(CN3CCCC3)n2CC1 | -4.02
CCc1cc(NCCN2CCNC2=O)n2nccc2n1 | 3.72
c1cnnc(N2CCCC2CNc2ncnc3c2CCC3)c1 (stereo not drawn) | -2.98
NC(=O)C(CNC(=O)CCc1ccsc1)Cc1ccc(F)cc1 (stereo not drawn) | 21
COCC(=O)NC[C@H]1C[C@@H]2CCN1C[C@@H]2CN(C)c1ccccc1 | 0.807
Cc1ccc(N2CC[C@@H]3[C@@H]2CCN3C(=O)Cc2cccs2)nn1 | -3.66
COC(=O)C(NC(=O)Nc1ccc(C(C)=O)cc1)C(C)C (stereo not drawn) | -5.76
Cc1cc(C)n(CC(C)Nc2ncnc3c2CCNC3)n1 (stereo not drawn) | -11.9
N#Cc1cccc(NC2CC(=O)N(C3Cc4ccccc4C3)C2)n1 (stereo not drawn) | 19
CCOc1cc(=O)n2c(c1C(=O)OCc1ccc(C)cc1)CCCC2 | 24.4
Cc1nc(C)n(CC2CN(Cc3cccc4c3OCCO4)CCO2)n1 (stereo not drawn) | 1.12

Compound | cytotoxicity at 70.5 h [%]
COCC(=O)N1CCN(C(C)=O)C[C@@H]1C(=O)OC | 12.2
CN(CCc1nc2cc(Cl)ccc2[nH]1)C(=O)c1ncn[nH]1 | -9.76
Cn1cnc(S(=O)(=O)N2C[C@H]3CN(Cc4ccccn4)C[C@H]3C2)c1 | -1.38
Cc1cc(CNC(=O)c2ccc(F)c(COCC3CC3)c2)no1 | -9.69
Cc1cccc(COC[C@@]23CCC[C@@H]2CN(S(=O)(=O)N(C)C)C3)n1 | -4.49
COc1ccc(OC)c(-c2nc(CN(C)Cc3nncn3C)c(C)o2)c1 | -6.73
Cc1cnn(CC2CCCN2Cc2nccn2CC(F)(F)F)c1 (stereo not drawn) | 0.0433
FC(F)COc1ccccc1NCc1nnsc1Cl | -10.5
CCc1ccsc1C(=O)N1CCN(CC(O)CC)CC1 (stereo not drawn) | 6.44
Cc1ccc(O)c(C(=O)N2CCCC(NC(=O)C(C)C)C2)c1 (stereo not drawn) | -6.92
CN(C)c1cc(CNC(=O)Nc2nncs2)ccn1 | -0.639
O=c1[nH]cnc2c1CCN(S(=O)(=O)c1cccc(OC(F)(F)F)c1)C2 | -5.76
N[C@@H]1CC[C@@H](NC(=O)c2ccccc2OC(F)(F)C(F)F)C1 | 16
O=C1NC[C@]2(CC[C@@H](C(=O)N3CCCC(O)C3)CC2)Oc2ccccc21 (stereo partly drawn) | -7.1
COCCN1CCO[C@@H]2CN(Cc3cc(OC)cc(OC)c3)C[C@@H]2C1 | 36.9
Cc1cncc(C2CCCN(C(=O)c3scnc3C)C2)n1 (stereo not drawn) | -3.5
Cc1cc(=O)[nH]c(NCCNC(=O)c2ccccc2N2CCCC2)n1 | 32.3
COc1ccc(CCC(=O)NCc2cc(C)on2)cc1 | 8.95
Cc1nc(C)c(C(=O)NCCn2nc3ccccn3c2=O)s1 | -1.89
Cc1ccc(N2CCCC(NC(=O)Nc3cnn(C)c3)C2=O)cc1 (stereo not drawn) | 9.02
O=c1[nH]c2ccccc2cc1CNCCCN1CCOCC1 | -1.38

— ChEMBL document CHEMBL3507680, “University of Dundee, Gates Library screen for HepG2 cell viability”
